Source: PMC7782983, “Anion inhibition studies of the Zn(II)-bound ι-carbonic anhydrase from the Gram-negative bacterium Burkholderia territorii” (Journal of Enzyme Inhibition and Medicinal Chemistry, 2021)
Where two headings read alike, the source gives them in different places.

Target: BteCAι
Test: stopped-flow CO2 hydrase assay
Assay type: biochemical, Burkholderia territorii
Conditions: read-out: KI (mM)^a / BteCAι^d
[1] = CO2 hydration, HEPES pH 7.5, 20 mM NaClO4, 15 min preincubation, room temperature, Zn(II) enzyme

| SMILES | Ki [1] | Ki |
| --- | --- | --- |
| N#CS [SCN^−] | 6.1 mM |  |
| NS(=O)(=O)O [NH2SO3H] | 0.0062 mM |  |
| Cl [Cl^−] | 3.1 mM |  |
| O=S(=O)(O)OOS(=O)(=O)O [S2O8^2−] | 7.4 mM |  |
| CCN(CC)C(=S)S [EtNCS2^−] | 0.81 mM |  |
| O=C(O)O [CO3^2−] | 4.4 mM |  |
| O=S(=O)(O)O [SO4^2−] | 5.8 mM |  |
| OB(O)c1ccccc1 [PhB(OH)2] | 0.009 mM |  |
| N#CO [CNO^−] | 0.79 mM |  |
| O=[As](O)(O)c1ccccc1 [PhAsO3H2] |  | 0.008 mM |
| N#C[SeH] [SeCN^−] | 6.6 mM |  |
| [O]=[Sn]([OH])[OH] [SnO3^2−] | 0.094 mM |  |
| O=C(O)O [HCO3^−] | 0.94 mM |  |
| NS(N)(=O)=O [NH2SO2NH2] | 0.086 mM |  |
